# Assay results from patent US11780845B2 (Relay Therapeutics, Inc., priority 2019, dated 2023).
# Biological target: FGFR2 (Homo sapiens (Human), UniProt P21802)
# Test: FGFR2 Biochemical Caliper Assay
# Description: Compounds of the present invention were also tested in a FGFR2 Biochemical Caliper Assay. Compounds were prepared in 10 mM DMSO solution and serially diluted into 11 concentrations by 3-fold dilution. […] 5 uL of ATP solution (100 uM) was added to start the reaction and the plate was incubated for 90 minutes, then 70 uL of stopping buffer (0.5M EDTA) was added to terminate the reaction. Each well was analyzed using EZ reader.
# Sequence of FGFR2 (P21802 22-821): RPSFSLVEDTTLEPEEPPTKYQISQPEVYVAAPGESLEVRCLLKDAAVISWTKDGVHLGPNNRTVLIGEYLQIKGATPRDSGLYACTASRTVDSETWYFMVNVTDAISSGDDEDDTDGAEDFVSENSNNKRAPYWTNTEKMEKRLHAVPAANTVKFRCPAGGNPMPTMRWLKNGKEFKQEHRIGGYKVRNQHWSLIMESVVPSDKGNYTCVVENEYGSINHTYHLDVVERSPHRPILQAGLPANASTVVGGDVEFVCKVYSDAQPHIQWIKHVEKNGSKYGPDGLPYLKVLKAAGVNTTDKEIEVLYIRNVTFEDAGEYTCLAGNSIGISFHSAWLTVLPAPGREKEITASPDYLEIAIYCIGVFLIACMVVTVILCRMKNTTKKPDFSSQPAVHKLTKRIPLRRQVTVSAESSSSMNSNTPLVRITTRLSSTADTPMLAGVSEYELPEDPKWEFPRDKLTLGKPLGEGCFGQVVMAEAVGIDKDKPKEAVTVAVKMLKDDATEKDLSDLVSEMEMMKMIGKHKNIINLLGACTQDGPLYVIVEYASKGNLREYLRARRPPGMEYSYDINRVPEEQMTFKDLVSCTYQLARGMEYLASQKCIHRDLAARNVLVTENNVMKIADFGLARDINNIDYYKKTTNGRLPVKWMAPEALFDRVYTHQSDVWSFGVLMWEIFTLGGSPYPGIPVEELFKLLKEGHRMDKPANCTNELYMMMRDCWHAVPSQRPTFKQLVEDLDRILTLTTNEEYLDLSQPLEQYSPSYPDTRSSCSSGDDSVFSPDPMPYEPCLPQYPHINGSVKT
row,SMILES,IC50 [µM]
1,C=CCC(=O)Nc1ccc(-c2c(-c3ccc(Oc4cccc(C)n4)c(OC)c3)c3c(N)ncnc3n2C)cc1 [Example 2],0.25 to 1
2,C=CC(=O)N1CCCc2cc(-c3c(-c4ccc(Oc5cccc(C)n5)c(OC)c4)c4c(N)ncnc4n3C)ccc21 [Example 3],< 0.1
3,C=CC(=O)N(C)c1ccc(-c2c(-c3ccc(Oc4cccc(C)n4)c(OC)c3)c3c(N)ncnc3n2C)cc1 [Example 6],0.1 to 0.25
4,C=CC(=O)Nc1cccc(-c2c(-c3ccc(Oc4cccc(C)n4)c(OC)c3)c3c(N)ncnc3n2C)c1 [Example 7],< 0.1
5,C=CC(=O)N1Cc2ccc(-c3c(-c4ccc(Oc5cccc(C)n5)c(OC)c4)c4c(N)ncnc4n3C)cc2C1 [Example 8],< 0.1
6,C=CC(=O)N(C)c1ccc(-c2c(-c3ccc(Oc4cccc(C)n4)cc3)c3c(N)ncnc3n2C)cc1 [Example 9],< 0.1
7,C=CC(=O)N1CCc2cc(-c3c(-c4ccc(Oc5cccc(C)n5)c(OC)c4)c4c(N)ncnc4n3C)ccc21 [Example 10],< 0.1
8,C=CC(=O)Nc1ccc(-c2c(-c3ccc(Oc4cccc(C)n4)c(C)c3)c3c(N)ncnc3n2C)cc1 [Example 19],< 0.1
9,C=CC(=O)N1CCc2cc(-c3c(-c4ccc(Oc5cccc(C)n5)cc4)c4c(N)ncnc4n3C)ccc2C1 [Example 20],0.1 to 0.25
10,C=CC(=O)Nc1ccc(-c2c(-c3ccc(Oc4cccc(C)n4)cc3)c3c(N)ncnc3n2C)cc1C [Example 21],< 0.1
11,C=CC(=O)Nc1cccc(-c2c(-c3ccc(Oc4cccc(C)n4)cc3)c3c(N)ncnc3n2C)c1 [Example 22],< 0.1
12,C=C(C)C(=O)Nc1ccc(-c2c(-c3ccc(Oc4ccccc4)cc3)c3c(N)ncnc3n2C)cc1 [Example 23],0.25 to 1
13,C=CC(=O)Nc1ccc(-c2c(-c3cccc(OC)c3)c3c(N)ncnc3n2C)cc1 [Example 25],< 0.1
14,C=CC(=O)Nc1ccc(-c2c(-c3ccc(Oc4cccc(C)c4)cc3)c3c(N)ncnc3n2C)cc1 [Example 28],< 0.1
15,C=C(C)C(=O)Nc1ccc(-c2c(-c3ccc(Oc4cccc(C)c4)cc3)c3c(N)ncnc3n2C)cc1 [Example 29],0.25 to 1
16,C=C(C)C(=O)Nc1ccc(-c2c(-c3ccc(Oc4ccccc4)c(OC)c3)c3c(N)ncnc3n2C)cc1 [Example 30],0.25 to 1
17,C=C(C)C(=O)Nc1ccc(-c2c(-c3ccc(Oc4cccc(C)c4)c(OC)c3)c3c(N)ncnc3n2C)cc1 [Example 33],0.25 to 1
18,C=CC(=O)Nc1ccc(-c2c(-c3ccc(Oc4cc(C)ccn4)c(OC)c3)c3c(N)ncnc3n2C)cc1 [Example 34],< 0.1
19,C=CC(=O)Nc1ccc(-c2c(Br)c3c(N)ncnc3n2C)cc1 [Example 37],< 0.1
20,C=CC(=O)Nc1ccc(-c2c(-c3ccc(Oc4ccncc4)c(OC)c3)c3c(N)ncnc3n2C)cc1 [Example 39],0.1 to 0.25
21,C=CC(=O)Nc1ccc(-c2c(-c3ccc(Oc4ccc(C)cn4)c(OC)c3)c3c(N)ncnc3n2C)cc1 [Example 40],< 0.1

# Results, then the molecule that gave them:
row,IC50 [µM],SMILES
1,0.25 to 1,"C=C(C)C(=O)Nc1ccc(-c2c(C3=CC[C@@H](C(=O)NCC(C)(C)OC)CC3)c3c(N)ncnc3n2C)cc1 (single isomer, unassigned) [Example 431]"
2,1 to 100,"C=C(C)C(=O)Nc1ccc(-c2c(C3=CC[C@H](C(=O)NCC(C)(C)OC)CC3)c3c(N)ncnc3n2C)cc1 (single isomer, unassigned) [Example 432]"
3,0.25 to 1,"C=C(C)C(=O)Nc1ccc(-c2c(-c3ccc(C(=O)N(C)C[C@H]4CCOC4)cc3)c3c(N)ncnc3n2C)cc1 (single isomer, unassigned) [Example 472]"
4,0.25 to 1,"C=C(C)C(=O)Nc1ccc(-c2c(-c3ccc(C(=O)N(C)C[C@@H]4CCOC4)cc3)c3c(N)ncnc3n2C)cc1 (single isomer, unassigned) [Example 473]"
5,0.25 to 1,"C=C(C)C(=O)Nc1ccc(-c2c(-c3ccc(C(=O)N4CCCC4)cc3)c3c(N)ncnc3n2C)c([C@H]2CCCO2)c1 (single isomer, unassigned) [Example 509]"
6,< 0.1,"C=C(C)C(=O)Nc1ccc(-c2c(-c3ccc(C(=O)N4CCCC4)cc3)c3c(N)ncnc3n2C)c([C@@H]2CCCO2)c1 (single isomer, unassigned) [Example 510]"
7,1 to 100,"C=C(C)C(=O)Nc1ccc(-c2c(C3=CC[C@@H](Oc4ccn(C)n4)CC3)c3c(N)ncnc3n2C)cc1 (single isomer, unassigned) [Example 549]"
8,0.25 to 1,"C=C(C)C(=O)Nc1ccc(-c2c(C3=CC[C@H](C(=O)N4CCC[C@H]4C#N)CC3)c3c(N)ncnc3n2C)cc1 (single isomer, unassigned) [Example 574]"
9,1 to 100,"C=C(C)C(=O)Nc1ccc(-c2c(C3=CC[C@H](C(=O)N4CC[C@@H](CO)C4)CC3)c3c(N)ncnc3n2C)cc1 (single isomer, unassigned) [Example 575]"
10,1 to 100,"C=C(C)C(=O)Nc1ccc(-c2c(C3=CC[C@H](C(=O)N4CC[C@@H](F)C4)CC3)c3c(N)ncnc3n2C)cc1 (single isomer, unassigned) [Example 576]"
11,0.25 to 1,"Cn1c(-c2ccc(NC(=O)C3=CCC3)cc2)c(C2=CC[C@H](C(=O)N3CCCC3)CC2)c2c(N)ncnc21 (single isomer, unassigned) [Example 579]"
12,1 to 100,"C=C(C)C(=O)Nc1ccc(-c2c(C3=CC[C@H](C(=O)N4CC[C@@H](OC)C4)CC3)c3c(N)ncnc3n2C)cc1 (single isomer, unassigned) [Example 580]"
13,0.25 to 1,"C=C(C)C(=O)Nc1ccc(-c2c(C3=CC[C@@H](C(=O)N4CC[C@@H](CO)C4)CC3)c3c(N)ncnc3n2C)cc1 (single isomer, unassigned) [Example 583]"
14,0.1 to 0.25,"Cn1c(-c2ccc(NC(=O)[C@H]3CO3)cc2)c(-c2ccc(C(=O)N3CCCC3)cc2)c2c(N)ncnc21 (single isomer, unassigned) [Example 585]"
15,0.1 to 0.25,"C=C(C)C(=O)Nc1ccc(-c2c(C3=CC[C@@H](C(=O)N4CC[C@@H](F)C4)CC3)c3c(N)ncnc3n2C)cc1 (single isomer, unassigned) [Example 591]"
16,0.25 to 1,"C=C(C)C(=O)Nc1ccc(-c2c(C3=CC[C@@H](C(=O)N4CC[C@@H](OC)C4)CC3)c3c(N)ncnc3n2C)cc1 (single isomer, unassigned) [Example 593]"
17,< 0.1,C=CC(=O)Nc1ccc(-c2c(-c3ccc(Oc4cncc(C)c4)c(OC)c3)c3c(N)ncnc3n2C)cc1 [Example 41]
18,< 0.1,C=CC(=O)Nc1ccc(-c2c(-c3ccc(Oc4ncccc4C)c(OC)c3)c3c(N)ncnc3n2C)cc1 [Example 42]
19,1 to 100,CCC(=O)Nc1ccc(-c2c(-c3ccc(Oc4ncccn4)c(OC)c3)c3c(N)ncnc3n2C)cc1 [Example 43]
20,< 0.1,C=CC(=O)Nc1ccc(-c2c(-c3ccc(Oc4ccc(C)nc4)c(OC)c3)c3c(N)ncnc3n2C)cc1 [Example 44]
21,< 0.1,C=CC(=O)Nc1ccc(-c2c(-c3ccc(OC)c(OC)c3)c3c(N)ncnc3n2C)cc1 [Example 46]
22,< 0.1,C=C(C)C(=O)Nc1ccc(-c2c(-c3ccc(Oc4ncccn4)cc3)c3c(N)ncnc3n2C)cc1 [Example 52]
23,0.25 to 1,C=C(C)C(=O)Nc1ccc(-c2c(-c3cccc(OC)c3)c3c(N)ncnc3n2C)cc1 [Example 55]
24,< 0.1,C=CC(=O)Nc1ccc(-c2c(-c3ccc(Nc4ncccn4)c(OC)c3)c3c(N)ncnc3n2C)cc1 [Example 56]
25,0.1 to 0.25,C=CC(=O)Nc1ccc(-c2c(-c3ccc(N(C)c4ncccn4)c(OC)c3)c3c(N)ncnc3n2C)cc1 [Example 57]
